A word on the IC50: it is the concentration that inhibits the measured activity by half.

The subject of assay [1] is 3T3 host cells. In words: 3T3 host cell activity in the T. cruzi image-based assay. Further details: species or system mouse. To be noted: for CC50: Mus musculus, NIH3T3, 48 hours, no activity up to top concentration, read-out: IC50 value against 3T3 cells used for SI; for SI to 3T3: ratio 3T3 host cell / parasite IC50, 48 hours. On the procedure: To calculate compound activity, 12.0 µM NFX was used as a positive control and 0.366% DMSO was used as a negative control. To determine the activity against the host cell, 30.0 µM of puromycin was used as a positive control. The percentage normalised activity was determined using the equation outlined in our previous publication[19] and the reproducibility of the assay was determined using the Z’-factor[20].
The assay was performed as previously described. Briefly, 3T3 cells were seeded at a concentration of 1 × 10^3 cells in 50 µL per well into collagen I coated 384-well plates (PerkinElmer, USA). Following 24 hours incubation at 37 °C and 5% CO2, 10 µL of parasites were added to wells at a multiplicity of infection (MOI) of 5:1 (parasites: host cells) with a Multidrop™ dispenser (Thermo Fisher, USA). Following 24 hours incubation, wells were washed with PBS (containing Mg^2+ and Ca^2+) to remove uninfected parasites. One wash was undertaken by using a Multidrop plate dispenser and two washes with a Bravo liquid handling device (Agilent Technologies, USA). Five microlitres of compound were added to plates and incubated for 48 hours. Cells were then fixed and stained with Hoechst (Life Technologies, USA) and HCS CellMask™ Green (Life Technologies, USA) and image acquisition was performed an Opera™ High Content Screening System (PerkinElmer, USA) at 20 times magnification. The positive control was 12.0 µM NFX and the negative control was 0.366% DMSO.

Assay [2] has as its system T. cruzi amastigotes. In words: T. cruzi image-based assay (48 hour, intracellular amastigotes in 3T3 host cells). The assay is classed as cell-based, Trypanosoma cruzi. To be noted: for Emax: 48 h; for IC50: intracellular amastigotes in 3T3 cells, retested from DMSO stocks (CF from solid sample, temporal experiments). The method, then: The assay was performed as previously described. […] One wash was undertaken by using a Multidrop plate dispenser and two washes with a Bravo liquid handling device (Agilent Technologies, USA). Five microlitres of compound were added to plates and incubated for 48 hours. Cells were then fixed and stained with Hoechst (Life Technologies, USA) and HCS CellMaskTM Green (Life Technologies, USA) and image acquisition was performed an OperaTM High Content Screening System (PerkinElmer, USA) at 20 times magnification. […] The maximum activity achievable (Emax) of compounds was determined by taking (or as close to, if concentrations in the Emax were limited) the percentage activity at the mid concentration within the plateau of activity in the concentration response curve (see Supplemental Fig. 1, example NFX). […] Final assay concentrations of compounds ranged from 4.03 μM to 4.03 × 10^-3 μM. […] This was only undertaken for the amastigote assay. Dilutions were prepared with a multichannel pipette ([…], Thermo Fisher Scientific, USA) in 384-well polypropylene plates (Corning, NY, USA). […] Compound IC50 values in the TcCYP51 in vitro assay were calculated in GraFit (Erithacus software) by non-linear slope analysis. All data are presented as mean ± standard deviation. The significance of % clearance of parasites at compound Emax concentrations was calculated in Prism 5.0, using an unpaired student's t-test.

Assay [3] relates to HEK293 cells. The experiment in a line: HEK293 assay (resazurin). In kind it is cell-based, human. To be noted: 120 hours; HEK293 / epimastigote IC50; NA = SI cannot be determined, tested to 79.4 µM. The method, then:
[…] […] Plates were incubated for 24 hours before the addition of compounds. […] The positive control was 32.5 μM puromycin and the negative control was 0.433% DMSO, slightly different to the T. cruzi assay due to the change in volume, whilst utilising the same stock control plate. […] […] […] This was only undertaken for the amastigote assay. Dilutions were prepared with a multichannel pipette ([…], Thermo Fisher Scientific, USA) in 384-well polypropylene plates (Corning, NY, USA).
In general terms: The colour change of resazurin is a common sign of viable cells or microbes.

The test system of assay [4] is T. cruzi epimastigotes. In words: 120 hour T. cruzi epimastigote assay (PrestoBlue). The assay is classed as cell-based. To be noted: Trypanosoma cruzi. On the procedure:
Additions were made with a Multidrop dispenser and compounds were added directly following parasite addition. Plates were incubated for 112 hours before the addition 10 µL of PrestoBlue® viability reagent (Thermo Fisher, USA). […] The positive control was NFX at a final concentration of 14.20 µM and 0.433% DMSO as a negative control.

In assay [5] the target is recombinant TcCYP51 (Trypanosoma cruzi, UniProt Q7Z1V1). The assay is classed as biochemical. The method, then:
The activity of compounds against TcCYP51 was determined at the University of Dundee as outlined previously. This assay utilises the fluorogenic probe benzyloxymethyloxycyanocoumarin (BOMCC), activated by TcCYP51. […] Preliminarily testing of MMV001239 was performed using this assay, with 1 replicate concentration response curve generated to establish whether it was a putative TcCYP51 inhibitor.
Compound IC50 values in the T. cruzi and HEK293 cell-based assays were determined using Prism 5.0 (GraphPad software), derived by a sigmoidal concentration response (variable slope) analysis. Compound IC50 values in the TcCYP51 in vitro assay were calculated in GraFit (Erithacus software) by non-linear slope analysis. All data are presented as mean ± standard deviation. The significance of % clearance of parasites at compound Emax concentrations was calculated in Prism 5.0, using an unpaired student’s t-test.

Assay [6] relates to T. cruzi amastigotes. The experiment in a line: Wash-off assay to assess parasite survival following compound removal. To be noted: Trypanosoma cruzi, 48 hours incubation, additional 72 hours without compound, read-out: percentage activity at the Emax, wash-off assay. In kind it is cell-based. The method, then: The T. cruzi assay 48 hour assay was performed. Following, plates were washed 5 times with PBS (containing Mg^2+ and Ca^2+) on a Bravo liquid handler to remove compound pressure. Plates were incubated for an additional 72 hours and wells were washed 5 times before fluorescent labels were added. Plates were imaged on an Opera confocal-based high-content system with 7 fields per well acquired, at 20 times magnification. […] Four experimental replicates were undertaken.

For assay [7], the system named is T. cruzi amastigotes. In words: 24 hour image-based assay. The assay is classed as cell-based. The conditions noted are these: Trypanosoma cruzi; for Emax: plateau/Emax concentrations, read-out: % activity at the Emax, 24 hours incubation; for IC50: n of 2, read-out: IC50 value, 24 hours incubation. On the procedure: Compounds were added to assay plates as described for the 48 hour assay, although incubation time was decreased to 24 hours. […] Two experimental replicates were performed.

For assay [8], the system named is T. cruzi amastigotes. The experiment in a line: 96 hour image-based assay. The assay is classed as cell-based, Trypanosoma cruzi. The conditions noted are these: for Emax: Trypanosoma cruzi. The method, then:
The assay format was the same as the 48 hour assay, although plates were incubated for 96 hours. […] Two extra wash steps were included to remove as many extracellular parasites as possible to reduce impact on determination of intracellular parasites. […] Two experimental replicates were undertaken.

The mark [9] stands for this setting: Trypanosoma cruzi, DMSO stocks (CF from solid sample), relative to nifurtimox control, read-out: % activity (Emax).
The mark [10] stands for this setting: Trypanosoma cruzi, NIH3T3, 48 h.
[11] abbreviates: DMSO stocks (CF from solid sample), relative to nifurtimox control.
[12] abbreviates: difference 96 hours minus 48 hours.

“And” between values parts separate entries of the source, which are not always exact repeats. Equal entries are not always repeated. Where two headings read alike, the source gives them in different places.

Chain of recombinant TcCYP51 (Q7Z1V1 whole entry): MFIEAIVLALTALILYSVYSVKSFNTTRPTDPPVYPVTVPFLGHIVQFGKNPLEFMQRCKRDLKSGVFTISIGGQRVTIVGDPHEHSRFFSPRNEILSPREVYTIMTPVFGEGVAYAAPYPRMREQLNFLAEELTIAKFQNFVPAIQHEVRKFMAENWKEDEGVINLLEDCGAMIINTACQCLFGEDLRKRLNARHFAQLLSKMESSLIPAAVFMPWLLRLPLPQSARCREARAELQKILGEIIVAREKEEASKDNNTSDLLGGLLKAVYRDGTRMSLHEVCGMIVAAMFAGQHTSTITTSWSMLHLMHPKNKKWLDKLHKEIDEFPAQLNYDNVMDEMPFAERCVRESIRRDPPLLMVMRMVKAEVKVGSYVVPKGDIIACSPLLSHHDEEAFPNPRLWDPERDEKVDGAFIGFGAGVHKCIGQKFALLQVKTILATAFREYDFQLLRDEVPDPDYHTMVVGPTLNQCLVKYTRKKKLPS

As for `Cc1ccc(CN(Cc2cccnc2)C(=O)Nc2ccc(Cl)c(Cl)c2)cc1` [Compound 5, 3-(3,4-Dichlorophenyl)-1-(4-methylbenzyl)-1-(3-pyridinylmethyl)urea], in assay [1], the CC50 was over 18.3 µM and the “SI to 3T3” value is given as over 10.0. Further, the Emax in assay [2] (setting [9]) is 88 ± 9.9%. Also, in assay [2] (setting [10]), the half-inhibitory concentration (IC50) stood at 1800 ± 3.54 nM. The half-maximal inhibitory concentration (IC50) in assay [2] turned out to be 1820 ± 3.54 nM.

In the case of `CCc1ccc(NC(=O)N(Cc2cccnc2)Cc2ccccc2Cl)cc1` [Compound 1, 1-(2-Chlorobenzyl)-3-(4-ethylphenyl)-1-(3-pyridinylmethyl)urea], in assay [1], the CC50 was over 18.3 µM and the “SI to 3T3” value was over 5.26. Moreover, the Emax in assay [2] (setting [9]) turned out to be 84.5 ± 6.36%. Also, in assay [2] (setting [10]), it took 3480 ± 622 nM to reach half-maximal inhibition (IC50).

`COc1ccc(C[C@H](N)C(=O)N[C@H]2[C@@H](O)[C@H](n3cnc4c(N(C)C)ncnc43)O[C@@H]2CO)cc1` [PURO, puromycin]: in assay [1], the “SI to 3T3” value worked out at 1.36. Besides, the IC50 is 2010 ± 329 nM in assay [2] (setting [10]) and 566 ± 141 nM in assay [4]. Further, in assay [3], the “SI to HEK293 cells” value is 0.386.

In the case of `CCOC(=O)C(=O)NCC(c1cccnc1)N1CCN(c2ccccc2)CC1` (centres unmarked) [Compound 2], the “SI to 3T3” value in assay [1] is over 8.43. Moreover, the “% activity (Emax)” value in assay [2] (setting [11]) worked out at 76.5 ± 3.54%. Further, the 50% inhibitory concentration (IC50) in assay [2] amounted to 2170 ± 499 nM; in assay [5] (BOMCC probe, read-out: IC50 value against recombinant TcCYP51) it was 562 ± 130 nM.

On to `CC[C@@H]([C@H](C)O)n1ncn(-c2ccc(N3CCN(c4ccc(OC[C@@H]5CO[C@@](Cn6cncn6)(c6ccc(F)cc6F)C5)cc4)CC3)cc2)c1=O` [POSA, posaconazole], for which, in assay [1], the CC50 turned out to be 1 µM. For the same compound, the Emax in assay [6] was 94%; in assay [2] (setting [9]), 70 ± 8.49%; in assay [2] (Trypanosoma cruzi, n of 4, read-out: percentage activity at the Emax, 48 hours incubation (temporal experiments, Fig. 3)), 75.3%; in assay [7], under 50%; in assay [8] (96 hours, n of 2, read-out: reduction in infected cells at the Emax, 96 hours exposure) it was 96.5%; in assay [8] (difference 96 hours minus 48 hours, read-out: increase in activity at the Emax from 48 to 96 hours incubation), 21.3%.

`CC1CS(=O)(=O)CCN1/N=C/c1ccc([N+](=O)[O-])o1` (centres unmarked) [NFX, nifurtimox]: the CC50 in assay [1] was over 127 µM. Further, the “SI to 3T3” value in assay [1] is recorded as over 179. Further, the Emax in assay [6], in assay [2] (setting [9]) and in assay [7] was 100% each time. For the same compound, the “% activity (Emax)” value in assay [2] (setting [11]) worked out at 102 ± 1.41%. Moreover, the IC50 in assay [2] (setting [10]) worked out at 709 ± 161 nM; in assay [7], 1.2 ± 0.0213 µM; in assay [4], 1110 ± 131 nM. In assay [3], the “SI to HEK293 cells” value is over 136. For the same compound, the “increase in activity at the Emax from 48 to 96 hours incubation” value in assay [8] (setting [12]) was “no difference”.

Regarding `COc1ccc2sc(N(Cc3cccnc3)C(=O)c3ccc(C#N)cc3)nc2c1` [MMV001239], the “percentage activity at the Emax, 48 hours incubation (temporal experiments, Fig. 3)” value in assay [2] (n of 4) is 85 ± 6.4% and 84.8%. For the same compound, the IC50 in assay [5] (single concentration response curve, read-out: IC50 value against recombinant TcCYP51, preliminary) came out at 46 nM.

As to `O=C(Cn1ccnc1[N+](=O)[O-])NCc1ccccc1` [BZ, benznidazole], the CC50 in assay [1] is over 127 µM. In addition, the “SI to 3T3” value in assay [1] is on record as over 35.7. Further, the Emax in assay [6], in assay [2] (setting [9]) and in assay [7] was 100% throughout. In addition, in assay [2] (setting [11]), the “% activity (Emax)” value worked out at 99.5 ± 2.12%. For the same compound, the IC50 in assay [2] (setting [10]) turned out to be 3560 ± 2340 nM; in assay [7] it was 7.56 ± 2.37 µM; in assay [4] it was 5780 ± 477 nM. In assay [3], the “SI to HEK293 cells” value is on record as over 26.1. In addition, in assay [8] (setting [12]), the “increase in activity at the Emax from 48 to 96 hours incubation” value was “no difference”.

For `CC(=O)N1CCC(N(Cc2cccnc2)C(=O)Nc2ccc(Cl)cc2)CC1` [Compound 3, 1-(1-Acetyl-4-piperidinyl)-3-(4-chlorophenyl)-1-(3-pyridinylmethyl)urea], in assay [1], the CC50 was over 18.3 µM and the “SI to 3T3” value is on record as over 14.2. For the same compound, the Emax in assay [2] (setting [9]) worked out at 70.5 ± 0.707%. Inhibition in assay [2] (setting [10]) was half-maximal at 1290 ± 368 nM (IC50).

Take `CCOc1ccc(NC(=O)N(Cc2ccc(C)cc2)Cc2cccnc2)cc1` [Compound 4, 3-(4-Ethoxyphenyl)-1-(4-methylbenzyl)-1-(3-pyridinylmethyl)urea]: in assay [1], the CC50 is over 18.3 µM and the “SI to 3T3” value is listed as over 13.1. For the same compound, the Emax in assay [2] (setting [9]) was 76 ± 1.41%. Besides, the IC50 in assay [2] (setting [10]) amounted to 1400 ± 79.9 nM.

(Values after publication PMC5861127, “3-pyridyl inhibitors with novel activity against Trypanosoma cruzi reveal in vitro profiles can aid prediction of putative cytochrome P450 inhibition” (Scientific Reports, 2018).)
